Assay results taken from ChEMBL document CHEMBL1201862, “PubChem BioAssay data set” (2004).
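Cultured in 96-well plates, cells were exposed to test compound for 48 hours across five concentrations. GI50 = concentration required for 50% inhibition of growth.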 Activity calls are given as the source filed them. Rule as the data show it: active = GI50 up to about 1.1 µM and inactive = higher.

What was measured:
Experiment in all cases: NCI tumour cell line growth inhibition, 48 h
SF-539 = tested on: SF-539
COLO 205 = tested on: COLO 205
UO-31 = tested on: UO-31
MOLT-4 = tested on: MOLT-4
OVCAR-4 = tested on: OVCAR-4
SF-295 = tested on: SF-295
CCRF-CEM = tested on: CCRF-CEM
PC-3 = tested on: PC-3
NCI-H460 = tested on: NCI-H460
A549 = tested on: A549
SK-MEL-2 = tested on: SK-MEL-2
UACC-62 = tested on: UACC-62
SNB-19 = tested on: SNB-19
RXF 393 = tested on: RXF 393
OVCAR-3 = tested on: OVCAR-3
HL-60 = tested on: HL-60
MDA-MB-435 = tested on: MDA-MB-435
SK-MEL-5 = tested on: SK-MEL-5
MDA-N = tested on: MDA-N
HCC 2998 = tested on: HCC 2998
HCT-116 = tested on: HCT-116
OVCAR-8 = tested on: OVCAR-8
MDA-MB-231 = tested on: MDA-MB-231
CAKI-1 = tested on: CAKI-1
NCI-H23 = tested on: NCI-H23
SN12C = tested on: SN12C
UACC-257 = tested on: UACC-257
BT-549 = tested on: BT-549
SK-OV-3 = tested on: SK-OV-3
DU-145 = tested on: DU-145
RPMI-8226 = tested on: RPMI-8226
HOP-92 = tested on: HOP-92
IGROV-1 = tested on: IGROV-1
KM12 = tested on: KM12
K562 = tested on: K562
SF-268 = tested on: SF-268
SW-620 = tested on: SW-620
EKVX = tested on: EKVX
A498 = tested on: A498
NCI-H522 = tested on: NCI-H522
786-0 = tested on: 786-0
HT-29 = tested on: HT-29
SNB-75 = tested on: SNB-75
NCI/ADR-RES = tested on: NCI/ADR-RES
OVCAR-5 = tested on: OVCAR-5
M14 = tested on: M14
Malme-3M = tested on: Malme-3M
SK-MEL-28 = tested on: SK-MEL-28
HCT-15 = tested on: HCT-15
NCI-H226 = tested on: NCI-H226
U-251 = tested on: U-251
ACHN = tested on: ACHN
Hs-578T = tested on: Hs-578T
MCF7 = tested on: MCF7
TK-10 = tested on: TK-10
SR = tested on: SR
T47D = tested on: T47D
HOP-62 = tested on: HOP-62
LOX IMVI = tested on: LOX IMVI

With `Cc1ccc2nc(C(C)C)c(=O)[nH]c2c1` the GI50 (SF-539) was 85.1 µM (inactive), the GI50 (COLO 205) was > 100 µM (inactive) and the GI50 (UO-31) was > 100 µM (inactive). The GI50 (MOLT-4) was > 100 µM (inactive), the GI50 (OVCAR-4) was 71.9 µM (inactive) and the GI50 (SF-295) was 71 µM (inactive). For the same compound, the GI50 (CCRF-CEM) was > 100 µM (inactive), the GI50 (PC-3) was 19.9 µM (inactive) and the GI50 (NCI-H460) was > 100 µM (inactive). The GI50 (A549) was 57 µM (inactive), the GI50 (SK-MEL-2) was 15 µM (inactive) and the GI50 (UACC-62) was > 100 µM (inactive). The GI50 (SNB-19) was > 100 µM (inactive), the GI50 (RXF 393) was 93.1 µM (inactive) and the GI50 (OVCAR-3) was 18.8 µM (inactive). The GI50 (HL-60) was > 100 µM (inactive), the GI50 (MDA-MB-435) was > 100 µM (inactive) and the GI50 (SK-MEL-5) was > 100 µM (inactive). The GI50 (MDA-N) was > 100 µM (inactive), the GI50 (HCC 2998) was > 100 µM (inactive) and the GI50 (HCT-116) was > 100 µM (inactive). The GI50 (OVCAR-8) was 26.1 µM (inactive), the GI50 (MDA-MB-231) was > 100 µM (inactive) and the GI50 (CAKI-1) was 43.4 µM (inactive). For the same compound, the GI50 (NCI-H23) was > 100 µM (inactive), the GI50 (SN12C) was > 100 µM (inactive) and the GI50 (UACC-257) was > 100 µM (inactive). The GI50 (BT-549) was > 100 µM (inactive), the GI50 (SK-OV-3) was > 100 µM (inactive) and the GI50 (DU-145) was > 100 µM (inactive). For the same compound, the GI50 (RPMI-8226) was > 100 µM (inactive), the GI50 (HOP-92) was > 100 µM (inactive) and the GI50 (IGROV-1) was > 100 µM (inactive). For the same compound, the GI50 (KM12) was 31.8 µM (inactive), the GI50 (K562) was > 100 µM (inactive) and the GI50 (SF-268) was > 100 µM (inactive). The GI50 (SW-620) was > 100 µM (inactive), the GI50 (EKVX) was > 100 µM (inactive) and the GI50 (A498) was > 100 µM (inactive). The GI50 (NCI-H522) was 82.8 µM (inactive), the GI50 (786-0) was 52.7 µM (inactive) and the GI50 (HT-29) was > 100 µM (inactive). The GI50 (SNB-75) was 42.4 µM (inactive), the GI50 (NCI/ADR-RES) was 54.7 µM (inactive) and the GI50 (OVCAR-5) was > 100 µM (inactive). For the same compound, the GI50 (M14) was > 100 µM (inactive), the GI50 (Malme-3M) was > 100 µM (inactive) and the GI50 (SK-MEL-28) was > 100 µM (inactive). The GI50 (HCT-15) was greater than 100 µM, the GI50 (NCI-H226) was > 100 µM (inactive) and the GI50 (U-251) was 47 µM (inactive). For the same compound, the GI50 (ACHN) was > 100 µM (inactive), the GI50 (Hs-578T) was 42.3 µM (inactive) and the GI50 (MCF7) was > 100 µM (inactive). For the same compound, the GI50 (TK-10) was > 100 µM (inactive), the GI50 (SR) was > 100 µM (inactive) and the GI50 (T47D) was > 100 µM (inactive). For the same compound, the GI50 (HOP-62) was 17.2 µM (inactive).

For `Cc1nnc2n1-c1ccccc1N(Cc1ccccc1)CC2`, the GI50 (SF-539) was > 100 µM (inactive), the GI50 (COLO 205) was 38.1 µM (inactive) and the GI50 (UO-31) was 34.5 µM (inactive). For the same compound, the GI50 (MOLT-4) was 23.8 µM (inactive), the GI50 (OVCAR-4) was 71.9 µM (inactive) and the GI50 (SF-295) was 75 µM (inactive). For the same compound, the GI50 (CCRF-CEM) was 17.6 µM (inactive), the GI50 (PC-3) was 49.8 µM (inactive) and the GI50 (NCI-H460) was > 100 µM (inactive). For the same compound, the GI50 (A549) was 75.7 µM (inactive), the GI50 (SK-MEL-2) was 80.7 µM (inactive) and the GI50 (UACC-62) was 39.6 µM (inactive). For the same compound, the GI50 (SNB-19) was > 100 µM (inactive), the GI50 (RXF 393) was 34.8 µM (inactive) and the GI50 (LOX IMVI) was 55.8 µM (inactive). For the same compound, the GI50 (OVCAR-3) was 39.6 µM (inactive), the GI50 (HL-60) was 23.6 µM (inactive) and the GI50 (MDA-MB-435) was 51.4 µM (inactive). The GI50 (SK-MEL-5) was 38.2 µM (inactive), the GI50 (MDA-N) was 46.2 µM (inactive) and the GI50 (HCC 2998) was 79.4 µM (inactive). For the same compound, the GI50 (HCT-116) was 46 µM (inactive), the GI50 (OVCAR-8) was 56 µM (inactive) and the GI50 (MDA-MB-231) was > 100 µM (inactive). The GI50 (CAKI-1) was 38 µM (inactive), the GI50 (NCI-H23) was 60 µM (inactive) and the GI50 (SN12C) was 58.7 µM (inactive). The GI50 (UACC-257) was 63.1 µM (inactive), the GI50 (BT-549) was 22.1 µM (inactive) and the GI50 (SK-OV-3) was > 100 µM (inactive). For the same compound, the GI50 (DU-145) was 70.3 µM (inactive), the GI50 (RPMI-8226) was 11.4 µM (inactive) and the GI50 (HOP-92) was 9.55 µM (inactive). For the same compound, the GI50 (IGROV-1) was 50.6 µM (inactive), the GI50 (KM12) was 81.1 µM (inactive) and the GI50 (K562) was 20.3 µM (inactive). For the same compound, the GI50 (SF-268) was 58.9 µM (inactive), the GI50 (SW-620) was 17.2 µM (inactive) and the GI50 (EKVX) was 34.2 µM (inactive). The GI50 (A498) was 93.8 µM (inactive), the GI50 (786-0) was 87.7 µM (inactive) and the GI50 (HT-29) was 40.1 µM (inactive). For the same compound, the GI50 (SNB-75) was 52.6 µM (inactive), the GI50 (NCI/ADR-RES) was 13.8 µM (inactive) and the GI50 (OVCAR-5) was > 100 µM (inactive). The GI50 (M14) was 63.7 µM (inactive), the GI50 (Malme-3M) was 85.1 µM (inactive) and the GI50 (SK-MEL-28) was > 100 µM (inactive). The GI50 (HCT-15) was 45.7 µM, the GI50 (NCI-H226) was 46.8 µM (inactive) and the GI50 (U-251) was 50 µM (inactive). The GI50 (ACHN) was 49.5 µM (inactive), the GI50 (Hs-578T) was 58.9 µM (inactive) and the GI50 (MCF7) was 37.4 µM (inactive). The GI50 (TK-10) was 82.6 µM (inactive), the GI50 (SR) was 30.4 µM (inactive) and the GI50 (T47D) was 41.2 µM (inactive). For the same compound, the GI50 (HOP-62) was > 100 µM (inactive).
